Results reported in PubChem BioAssay (NCI).
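Briefly, cells in 96-well plates were exposed to five compound concentrations for 48 h, and endpoints were estimated by linear interpolation. TGI: total growth inhibition.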 Where a SMILES comes first, the peptide text is derived from it. The star is where a group is joined. Boc = CC(C)(C)OC(=O)*; OBn = c1ccc(CO*)cc1

Each compound was assayed on HCT-15 colon (assay: inhibition of tumour cell growth, NCI panel, 48 h).
In the case of `Nc1nc(N)c2cc(Sc3ccc4nc(N)nc(N)c4c3)ccc2n1`, the TGI is reported as > 100 µM. For `N#CC(C#N)N=Cc1ccncc1`, the TGI was > 100 µM. `COc1ccc2c(c1)/C(=C\c1c(C)nc3n1CCS3)C(=O)N2` was tested, and the TGI was > 100 µM. For `CN(C)C=C1C(=O)c2c(Br)sc(Br)c2C1=O`, the TGI was 54.7 µM. For `O=c1[nH]n(Cc2ccccc2Cl)c2ccc([N+](=O)[O-])cc12`, the TGI was > 100 µM. `COc1cc2c[n+](C)c3c4cc5c(cc4ccc3c2cc1OC)OCO5` was tested, and the TGI was > 100 µM. With `CCOC(=O)CCC(NC(=O)c1ccc(CNc2nc3ccccc3nc2C(=O)OCC)cc1)C(=O)OCC` (configuration not stated) the TGI was > 100 µM. For `COC(=O)Nc1nc2ccc(S(=O)(=O)NC(CC(C)C)C(=O)OC)cc2[nH]1` (configuration not stated), the TGI was > 100 µM. `Cc1cc([C@H](C#N)c2nc3ccccc3[nH]2)nc(Cl)n1` was tested, and the TGI was > 100 µM. With `OC(CCN1CCCCC1)(c1ccccc1)c1ccccc1` the TGI was > 100 µM. Work on `COC1CC(C)C(OC)C2=CC(=O)C=C(NC(=O)/C(C)=C/C=C\C(C)C(OC(N)=O)/C(C)=C\C(C)C1OC)C2=O` (configuration not stated) yielded a TGI of 3.31 µM. For `O=C1c2ccccc2C(O)(C(=O)O)C1(O)CC=C(Cl)Cl` (configuration not stated), the TGI was > 125 µM. With `CN(C)C=Nc1cccc2nsnc12` the TGI was > 100 µM. For `CC(=O)O[C@@H]1CC[C@@]2(C)C(CC[C@H]3[C@@H]4CC[C@H]([C@H](C)CCc5nc6ccc(C)cc6[nH]5)[C@@]4(C)CC[C@@H]32)C1` (some centres not stated), the TGI was > 100 µM. In the case of `COc1cccc(OC/C(N=Cc2cccnc2)=N/NC(=O)c2ccncc2)c1`, the TGI is reported as > 100 µM. `Cc1csc2nc3c(cnn3C)c(=S)n12` was tested, and the TGI was > 100 µM. With `C/C1=C/C(C)CC(C)OC(=O)C(C)NC(=O)C(Cc2ccc(O)c(I)c2)N(C)C(=O)CNC(=O)C(C)C1` (configuration not stated) the TGI was 11.2 µM. For `COC(=O)C(C)NP(=O)(N1CC1)N1CC1` (configuration not stated), the TGI was > 100 µM. With `Cc1ccc(-n2cnc3c(N)nc(N)nc32)cc1` the TGI was > 100 µM. For `Ic1ncnc2c1ncn2C1CCCO1` (configuration not stated), the TGI was > 100 µM. With `COc1ccc(Nc2nnc(CCCCCCCCc3nnc(Nc4ccc(OC)cc4)o3)o2)cc1` the TGI was > 100 µM. With `O=c1c(C=Nc2ccccc2Cl)c(O)n(-c2ccccc2)c(=O)n1-c1ccccc1` the TGI was > 100 µM. For `CCOC(=O)NNC(=O)C1CSC(c2ccccc2)N1C(C)=O` (configuration not stated), the TGI was > 100 µM. `O=[n+]1c2ccccc2n([O-])c2ccccc21` was tested, and the TGI was > 100 µM. `CC(C)(C)O/C=C1/C(=O)OC2C[C@@H](O[Si](C)(C)C(C)(C)C)CC12` (some centres not stated) was tested, and the TGI was > 100 µM. For `CCCCCCCCCCCCCCCCCCNc1ccn(C2OC(COP(=O)(O)OC3CC(n4cc(F)c(=O)[nH]c4=O)OC3COP(=O)(O)OCC3OC(n4ccc(N)nc4=O)C(O)C3O)C(O)C2O)c(=O)n1` (configuration not stated), the TGI was 41.4 µM. In the case of `CC(C)C(NC(=O)C(Cc1ccccc1)NC(=O)OC(C)(C)C)C(=O)NCC(=O)OCc1ccccc1` (stereo not drawn) (Boc-Phe-Val-Gly-OBn; configuration not given here), the TGI is reported as 26.7 µM.

What follows are compounds tested on HOP-92 NSCLC (assay: inhibition of tumour cell growth, NCI panel, 48 h).
`Cc1oc2c(c1C)S(=O)(=O)C(C#N)C(c1ccccc1)N2` (configuration not stated) was tested, and the TGI was > 100 µM. `CC(=O)Oc1cc2c(n(C)c1=O)-c1ccccc1C2` was tested, and the TGI was > 100 µM. With `Nc1nc(N)c2cc(Sc3ccc4nc(N)nc(N)c4c3)ccc2n1` the TGI was > 100 µM. In the case of `N#CC(C#N)N=Cc1ccncc1`, the TGI is reported as > 100 µM. With `COc1ccc2c(c1)/C(=C\c1c(C)nc3n1CCS3)C(=O)N2` the TGI was > 100 µM. `CN(C)C=C1C(=O)c2c(Br)sc(Br)c2C1=O` gave a TGI of 37.1 µM. In the case of `O=c1[nH]n(Cc2ccccc2Cl)c2ccc([N+](=O)[O-])cc12`, the TGI is reported as 52 µM. `COc1cc2c[n+](C)c3c4cc5c(cc4ccc3c2cc1OC)OCO5` gave a TGI of 6.39 µM. For `CCOC(=O)CCC(NC(=O)c1ccc(CNc2nc3ccccc3nc2C(=O)OCC)cc1)C(=O)OCC` (configuration not stated), the TGI was > 100 µM. In the case of `COC(=O)Nc1nc2ccc(S(=O)(=O)NC(CC(C)C)C(=O)OC)cc2[nH]1` (configuration not stated), the TGI is reported as > 100 µM. For `Cc1cc([C@H](C#N)c2nc3ccccc3[nH]2)nc(Cl)n1`, the TGI was > 100 µM. `OC(CCN1CCCCC1)(c1ccccc1)c1ccccc1` was tested, and the TGI was > 100 µM. `COC1CC(C)C(OC)C2=CC(=O)C=C(NC(=O)/C(C)=C/C=C\C(C)C(OC(N)=O)/C(C)=C\C(C)C1OC)C2=O` (configuration not stated) gave a TGI of 10.9 µM. With `O=C1c2ccccc2C(O)(C(=O)O)C1(O)CC=C(Cl)Cl` (configuration not stated) the TGI was > 117 µM. In the case of `CN(C)C=Nc1cccc2nsnc12`, the TGI is reported as > 100 µM. With `CC(=O)O[C@@H]1CC[C@@]2(C)C(CC[C@H]3[C@@H]4CC[C@H]([C@H](C)CCc5nc6ccc(C)cc6[nH]5)[C@@]4(C)CC[C@@H]32)C1` (some centres not stated) the TGI was > 100 µM. With `COc1cccc(OC/C(N=Cc2cccnc2)=N/NC(=O)c2ccncc2)c1` the TGI was > 100 µM. `C/C1=C/C(C)CC(C)OC(=O)C(C)NC(=O)C(Cc2ccc(O)c(I)c2)N(C)C(=O)CNC(=O)C(C)C1` (configuration not stated) was tested, and the TGI was 0.0654 µM. `Cc1ccc(-n2cnc3c(N)nc(N)nc32)cc1` was tested, and the TGI was > 100 µM. `Ic1ncnc2c1ncn2C1CCCO1` (configuration not stated) was tested, and the TGI was > 100 µM. `COc1ccc(Nc2nnc(CCCCCCCCc3nnc(Nc4ccc(OC)cc4)o3)o2)cc1` was tested, and the TGI was > 100 µM. For `O=c1c(C=Nc2ccccc2Cl)c(O)n(-c2ccccc2)c(=O)n1-c1ccccc1`, the TGI was > 100 µM. In the case of `CCOC(=O)NNC(=O)C1CSC(c2ccccc2)N1C(C)=O` (configuration not stated), the TGI is reported as > 100 µM. With `CC(C)(C)O/C=C1/C(=O)OC2C[C@@H](O[Si](C)(C)C(C)(C)C)CC12` (some centres not stated) the TGI was > 100 µM. `CCCCCCCCCCCCCCCCCCNc1ccn(C2OC(COP(=O)(O)OC3CC(n4cc(F)c(=O)[nH]c4=O)OC3COP(=O)(O)OCC3OC(n4ccc(N)nc4=O)C(O)C3O)C(O)C2O)c(=O)n1` (configuration not stated) was tested, and the TGI was > 100 µM.

What follows are compounds tested on HS 578T breast (assay: inhibition of tumour cell growth, NCI panel, 48 h).
In the case of `Cc1oc2c(c1C)S(=O)(=O)C(C#N)C(c1ccccc1)N2` (configuration not stated), the TGI is reported as > 100 µM. With `CC(=O)Oc1cc2c(n(C)c1=O)-c1ccccc1C2` the TGI was > 100 µM. In the case of `Nc1nc(N)c2cc(Sc3ccc4nc(N)nc(N)c4c3)ccc2n1`, the TGI is reported as > 100 µM. `CN(C)C=C1C(=O)c2c(Br)sc(Br)c2C1=O` showed a TGI of 46.9 µM. In the case of `O=c1[nH]n(Cc2ccccc2Cl)c2ccc([N+](=O)[O-])cc12`, the TGI is reported as > 100 µM.
